# Data from patent publication US20250197864A1, “LNCRNA TRANSCRIPTS IN MELANOMAGENESIS” (The Regents of the University of California, priority 2021, published 2025).
# Test system: gene expression in D04 melanoma cells
# Experiment: RNA-Seq differential expression analysis (DESeq2)
# Type: cell-based, human
# Protocol: Total RNA was isolated using the RNeasy mini Kit (QIAGEN) following the manufacturer's protocol. Quality check for extracted RNA was done using 2100 Bioanalyzer (Agilent Technologies, USA) or Tapestation System (Agilent Technologies, USA). […] For samples used for identification of MAPK-responsive lncRNAs, paired-end, 101-bp sequencing was performed by Centrillion Genomic Services (Centrillion Biosciences, USA) on an Illumina HiSeq 2000. For DE gene analysis of ASO-transfected D04 samples, paired-end, 2×150-bp sequencing was performed by Genewiz (USA) on a Illumina HiSeq.
# Sequence reads were aligned to the human genome (hg19) using TopHat (Version 2.0.11).
# Differential expression (DE) analysis was done using DESeq2. Differentially expressed genes were defined by more than 1.5-fold changes (log 2 >0.58 or <−0.58) in expression with FDR<0.05. GO term analysis was done using DAVID Functional Annotation Clustering analysis.
# To examine the biomolecular changes upon TRASH-inhibition in melanoma, D04 cells were treated with TRASH-ASOs (SEQ ID NO:15) and Control-ASOs and RNA was extracted and used for RNA-Seq. […] These GO terms consisted of genes encoding growth factors, tyrosine kinases, G protein coupled receptor subunits, and collagen subunits. Scatter plot diagram showing differential gene expression after TRASH-ASO treatment compared to Control-ASO treatment. (cut-off for significance was adjusted p-value <0.05). Data was obtained from RNA-Seq of D04 melanoma cells, treatment period was three days. (FIG. 5c)
sequence,measurement,setting,value
"GACTGGAGATAATTAA (gapmer, pattern not given here) [SEQ ID NO: 15, GapmeR ASO targeting AC004540.4 (TRASH), exon region of both isoforms; used for in vitro experiments]",log2FoldChange,44256 (ENSG00000186205),1.274
same,log2FoldChange,44259 (ENSG00000144583),2.095
same,log2FoldChange,A2M (ENSG00000175899),−0.6461
same,log2FoldChange,AADACP1 (ENSG00000240602),1.744
same,log2FoldChange,AAGAB (ENSG00000103591),−0.6248
same,log2FoldChange,AAMDC (ENSG00000087884),−0.6077
same,log2FoldChange,ABCA7 (ENSG00000064687),−0.6185
same,log2FoldChange,AC004817.3 (ENSG00000269927),1.303
same,log2FoldChange,AC004949.1 (ENSG00000283117),−0.6056
same,log2FoldChange,AC005144.1 (ENSG00000283517),1.578
same,log2FoldChange,AC006058.1 (ENSG00000261786),−0.7044
same,log2FoldChange,AC009502.2 (ENSG00000231802),1.847
same,log2FoldChange,AC010735.1 (ENSG00000261379),−0.6617
same,log2FoldChange,AC010735.2 (ENSG00000272622),−0.6927
same,log2FoldChange,AC011944.1 (ENSG00000177699),1.481
same,log2FoldChange,AC022007.1 (ENSG00000206567),−0.6327
same,log2FoldChange,AC022031.2 (ENSG00000267284),−0.6353
same,log2FoldChange,AC048341.1 (ENSG00000257354),−0.6321
same,log2FoldChange,AC073130.1 (ENSG00000237870),1.474
same,log2FoldChange,AC090192.2 (ENSG00000253227),1.561
same,log2FoldChange,AC090204.1 (ENSG00000247134),−0.6895
same,log2FoldChange,AC090505.1 (ENSG00000234805),1.656
same,log2FoldChange,AC099552.1 (ENSG00000217825),2.619
same,log2FoldChange,AC105942.1 (ENSG00000235501),−0.6072
same,log2FoldChange,AC117386.2 (ENSG00000243944),−0.661
same,log2FoldChange,AC131254.1 (ENSG00000248964),2
same,log2FoldChange,AC133785.1 (ENSG00000233221),1.627
same,log2FoldChange,AC135782.1 (ENSG00000256982),1.563
same,log2FoldChange,AC139491.2 (ENSG00000248596),1.322
same,log2FoldChange,AC237221.1 (ENSG00000260653),1.665
same,log2FoldChange,AC245041.1 (ENSG00000273760),1.261
same,log2FoldChange,ACTBL2 (ENSG00000169067),−0.6731
same,log2FoldChange,ACTR3C (ENSG00000106526),−0.7012
same,log2FoldChange,ADCYAP1R1 (ENSG00000078549),2.87
same,log2FoldChange,ADGRA2 (ENSG00000020181),−0.7029
same,log2FoldChange,ADGRB1 (ENSG00000181790),1.472
same,log2FoldChange,ADGRE4P (ENSG00000268758),1.451
same,log2FoldChange,ADPRHL1 (ENSG00000153531),3.706
same,log2FoldChange,ADRB2 (ENSG00000169252),1.354
same,log2FoldChange,AHNAK2 (ENSG00000185567),1.379
same,log2FoldChange,AHR (ENSG00000106546),−0.6391
same,log2FoldChange,AKNAD1 (ENSG00000162641),1.238
same,log2FoldChange,AL161431.1 (ENSG00000275216),1.631
same,log2FoldChange,AL356234.3 (ENSG00000283265),2.668
same,log2FoldChange,AL365181.2 (ENSG00000272068),1.422
same,log2FoldChange,AL390334.1 (ENSG00000258932),−0.6259
same,log2FoldChange,AL512488.1 (ENSG00000230439),1.824
same,log2FoldChange,AL590004.4 (ENSG00000260604),1.853
same,log2FoldChange,ALMS1-IT1 (ENSG00000230002),1.247
same,log2FoldChange,ALOXE3 (ENSG00000179148),4.94
same,log2FoldChange,ALPI (ENSG00000163295),7.153
same,log2FoldChange,ANKH (ENSG00000154122),−0.6414
same,log2FoldChange,ANO2 (ENSG00000047617),2.643
same,log2FoldChange,ANXA8 (ENSG00000265190),1.513
same,log2FoldChange,ANXA8L1 (ENSG00000264230),1.299
same,log2FoldChange,APOA4 (ENSG00000110244),7.547
same,log2FoldChange,APOE (ENSG00000130203),−0.6001
same,log2FoldChange,AQP1 (ENSG00000240583),−0.6784
same,log2FoldChange,ARC (ENSG00000198576),1.257
same,log2FoldChange,ARHGDIB (ENSG00000111348),1.501
same,log2FoldChange,ARSA (ENSG00000100299),−0.6363
same,log2FoldChange,ATG9B (ENSG00000181652),1.674
same,log2FoldChange,ATP2B2 (ENSG00000157087),2.6809
same,log2FoldChange,B3GALT5 (ENSG00000183778),3.38
same,log2FoldChange,B4GALNT3 (ENSG00000139044),−0.6558
same,log2FoldChange,BAALC-AS1 (ENSG00000247081),−0.5946
same,log2FoldChange,BEX5 (ENSG00000184515),1.778
same,log2FoldChange,BHLHB9 (ENSG00000198908),−0.6347
same,log2FoldChange,BIRC7 (ENSG00000101197),1.54
same,log2FoldChange,BVES (ENSG00000112276),−0.7008
same,log2FoldChange,C1orf21 (ENSG00000116667),−0.5945
same,log2FoldChange,C1orf116 (ENSG00000182795),1.382
same,log2FoldChange,C3 (ENSG00000125730),−0.6635
same,log2FoldChange,C5 (ENSG00000106804),−0.69
same,log2FoldChange,C7orf57 (ENSG00000164746),1.917
same,log2FoldChange,C7orf69 (ENSG00000136275),−0.6813
same,log2FoldChange,C10orf55 (ENSG00000222047),2.331
same,log2FoldChange,C10orf90 (ENSG00000154493),−0.626
same,log2FoldChange,C11orf86 (ENSG00000173237),1.233
same,log2FoldChange,C15orf54 (ENSG00000175746),1.489
same,log2FoldChange,C16orf45 (ENSG00000166780),−0.6742
same,log2FoldChange,CACNA1D (ENSG00000157388),−0.6311
same,log2FoldChange,CACNA1H (ENSG00000196557),1.733
same,log2FoldChange,CALB2 (ENSG00000172137),1.839
same,log2FoldChange,CARMIL1 (ENSG00000079691),−0.6828
same,log2FoldChange,CASC9 (ENSG00000249395),−0.6279
same,log2FoldChange,CASTOR3 (ENSG00000239521),−0.6683
